Measured values reported in paper PMC7714071, “Interaction of amyloid beta with humanin and acetylcholinesterase is modulated by ATP” (FEBS Open Bio, 2020).

System: A549 cells
Test: MTT cell viability, A549
Assay type: cell-based, human
Details: 48 h, Fig. 7A; for effect of ATP on viability in HN-ID media: HN-immunodepleted media, versus no ATP; for effect on cell viability: control media, three experiments in triplicate
Method: Human NSCLC cell lines, A549 (ATCC CCL‐185) and H1299 (ATCC CRL‐5803), were purchased from the American Type Culture Collection (ATCC, Manassas, VA, USA). Cells were seeded as we reported earlier in 5 mL HyClone Dulbecco's modified Eagle's medium/nutrient mixture F‐12 (DMEM/F12) (GE Healthcare Life Sciences, Pittsburgh, PA, USA), supplemented with 10% Fetalgro bovine growth serum (FBS; RMBIO, Missoula, MT, USA), 50 U·mL^−1 penicillin, and […] streptomycin (Invitrogen, Life Technologies, Carlsbad, CA, USA) in 25‐cm^2 tissue culture flasks, and allowed to grow overnight in an incubator at 37 °C, 95% humidity, and 5% CO2. The cells were counted after trypan blue staining, with a hemocytometer.
The 3‐(4,5‐dimethylthiazol‐2‐yl)‐2,5‐diphenyl‐tetrazolium bromide (MTT) reduction assay (Sigma‐Aldrich), used to measure cell viability, was carried out as we reported earlier. Cells were seeded in 96‐well plates as indicated in 200 μL 10% FBS‐supplemented media per well and maintained overnight at 95% humidity and 5% CO2. After an overnight incubation, the media were replaced with 200 μL serum‐free media, and the cells were further incubated, without or with different treatments, for 24, 48, or 72 h. The final concentration of DMSO in each well never exceeded 0.1%. The cells were then incubated for 4 h with MTT (0.5 mg·mL^−1) in the dark. The media were carefully removed, and DMSO (100 μL) was added to dissolve the formazan crystals. The absorbance was measured at 570 nm in a plate reader. Untreated cells or wells containing only DMSO and media were used as a positive and negative control, respectively. Statistical analysis was conducted using […] PRISM version 8.4.3 for Windows. Significant values were considered at P < 0.05 and more significant values at P < 0.01, compared with the control.
Conditioned media were immunodepleted (ID) according to the methods previously described and our recently published report. Briefly, specific antibodies were bound to ELISA wells overnight (1 : 1000 dilution). The wells were then blocked and washed, then 300 μL of the conditioned medium (0.5 μg·μL^−1) treated as indicated, 72 h postserum starvation, was incubated with the antibodies bound to ELISA wells for 24 h. The ID media were then carefully removed and analyzed for the presence of the target protein or peptide by ELISA. The same amount of protein (3 µL of 600 µg·mL^−1 total protein) of each sample was analyzed in the experiments. Significant depletion (95–100%) was observed upon using each of the antibodies employed in this study.
Since addition of ATP appears to increase binding of HN to Aβ, and conversely, decreases the interaction of Aβ with AChE (Figs 3, 4, 5, 6), we tested the effect of added ATP on A549 and H1299 cell viability (Fig. 7). Exogenously added ATP at either 100 µM or 1 mM had no effect on viability of either A549 (Fig. 7A) or H1299 cells (Fig. 7B). […] To determine the effect of ID of AChE or HN in the absence or presence of added ATP on cell viability, ID media were prepared by first seeding 0.2 × 10^5 cells per well in 96‐well plates in 10% FBS‐supplemented media. The next day, the cells were incubated in serum‐free medium for 72 h, then ID of AChE or HN as described in Materials and methods. For cell viability assays, cells were seeded in 96‐well plates at 0.2 × 10^5 cells per well in 200 µL 10% FBS‐supplemented media followed by incubation in serum‐free medium for 12 h, then treated with the ID media for 48 h. […]

SMILES: Nc1ncnc2c1ncn2[C@@H]1O[C@H](COP(=O)(O)OP(=O)(O)OP(=O)(O)O)[C@@H](O)[C@H]1O [ATP, Adenosine triphosphate]
- effect of ATP on viability in AChE-depleted media (AChE-immunodepleted media): did not affect cell viability
- effect of ATP on viability in HN-ID media (ATP 100 µM): No change in cell viability
- effect on cell viability (ATP 100 µM): no effect
- effect of ATP on viability in HN-ID media (ATP 1 mM): No change in cell viability
- effect on cell viability (ATP 1 mM): no effect
